According to paper PMC4608832, “Synthesis of New 4-Aminoquinolines and Evaluation of Their In Vitro Activity against Chloroquine-Sensitive and Chloroquine-Resistant Plasmodium falciparum” (PLoS ONE, 2015):
Like-named read-outs stand apart in the source and are kept apart here.

Assays:
[1] = tested on: P. falciparum 3D7 (CQ-sensitive); experiment: In vitro antiplasmodial activity, 3H-hypoxanthine incorporation, strain 3D7; type: cell-based; details: Plasmodium falciparum, IC50 ± SD, read-out: Antiplasmodial activity, IC50, 3D7
Protocol: (§1) The following strains of Plasmodium falciparum were used in this study: F32 (Tanzania), Dd2 (SE Asia), K1 (SE Asia), FcB1 (Colombia), K14 (Cambodia) and 3D7 (Africa). […] Parasites at the ring stage (laboratory A) or asynchronous parasites (laboratory B) were grown in human A+ or O+ red blood cells at a 1.5% (laboratory A) or 2% (laboratory B) haematocrit and a 0.8–1% parasitaemia. Synchronization of the parasites was performed by sorbitol treatment.
(§2) Further dilutions were in complete culture medium. The complexes were tested for their inhibitory effect toward P. falciparum intraerythrocytic development. […] 100 μL from a culture at a 3% (laboratory A) or 4% (laboratory B) hematocrit in complete medium was added per well. […] Plates were freeze-thawed and harvested on filters. […] The percentage of growth inhibition was calculated from the parasite-associated radioactivity. 100% ^3H-hypoxanthine incorporation was determined from a control grown in the absence of drug or test compound.

P. falciparum Dd2 = experiment: In vitro antiplasmodial activity, 3H-hypoxanthine incorporation, strain Dd2; type: cell-based; details: Plasmodium falciparum, IC50 ± SD, read-out: Antiplasmodial activity, IC50, Dd2
Protocol: as §1, §2

[2] = tested on: P. falciparum K1 (CQ-resistant); experiment: In vitro antiplasmodial activity, 3H-hypoxanthine incorporation, strain K1; type: cell-based; details: Plasmodium falciparum, IC50 ± SD, read-out: Antiplasmodial activity, IC50, K1
Protocol: as §1, §2

[3] = tested on: P. falciparum F32 (CQ-sensitive); experiment: In vitro antiplasmodial activity, 3H-hypoxanthine incorporation, strain F32; type: cell-based; details: Plasmodium falciparum, F32; laboratory B (Paris); IC50 ± SD; read-out: Antiplasmodial activity, IC50, F32
Protocol: as §1, §2
(§3) IC50 ± SD values (nM) determined from independent experiments performed in triplicate under the conditions of laboratory B (Paris).

[4] = tested on: P. falciparum K14 (CQ-resistant); experiment: In vitro antiplasmodial activity, 3H-hypoxanthine incorporation, strain K14; type: cell-based; details: Plasmodium falciparum
Protocol: as §1, §2, §3

[5] = tested on: P. falciparum FcB1 (CQ-resistant); experiment: In vitro antiplasmodial activity, 3H-hypoxanthine incorporation, strain FcB1; type: cell-based; details: Plasmodium falciparum, FCB1; laboratory B (Paris); IC50 ± SD; read-out: Antiplasmodial activity, IC50, FcB1
Protocol: as §1, §2, §3

[6] = Cytotoxicity, MTT, L6 cells; type: cell-based; details: rat, L-6 cells, concentration inducing 50% of cell growth arrest, three days
Protocol: (§4) The rat L-6 and human MRC-5 cell lines were routinely grown in RPMI 1640 supplemented with 11 mM glucose, 27.5 mM NaHCO3, 100 UI/mL penicillin, 100 μg/mL streptomycin and 10% fetal calf serum (RPMI-FCS), in a 5% CO2 incubator at 37°C. For cytotoxicity assays, 100 μL per well of a 2×10^4 cells/mL suspension in RPMI-FCS were deposited in a 96-well microplate and incubated overnight in culture conditions. Then decreasing concentrations of the compounds to test were established by twofold serial dilutions in RPMI-FCS and distributed at a rate of 100 μL per well and the microplate was put back in the incubator for an additional three (L-6) or five (MRC-5) day period. Then the supernatant in each well was discarded and replaced by 100 μL of MTT 1 mg/mL in RPMI-FCS. The microplate was re-incubated in culture conditions for three hours, then 100 μL of 10% SDS was added by well. The cells were left overnight in the incubator then the OD at 540nm was measured with the Bio-Tek FL600™ microplate reader equipped with the KC4™ software. […] The selectivity of each compound to P. falciparum was assessed through the selectivity index (SI), defined as CC50 (to L6 or MRC5 cells) / IC50 (to P. falciparum).

[7] = Cytotoxicity, MTT, MRC5 cells; type: cell-based; details: human, MRC-5 cells, concentration inducing 50% of cell growth arrest, five days
Protocol: as §4

[8] = In vitro microsomal metabolic stability; details: human, human liver microsomes; for microsomal CLint at 1 μM: pH 7.4; for half-life at 1 μM: [Compd] = 1 μM, [protein] = 0.3 mg/mL
Protocol: The evaluation of microsomal stability was performed by Cyprotex US, LLC, Watertown, MA. […] After separation on an HILIC HPLC colum (Sepax HILIC […] 2.1 x 30 mm) using an acetonitrile-water gradient system, peaks were analyzed by mass spectrometry (MS) using ESI ionization in MRM mode. The signal was optimized for each compound by ESI positive or negative ionization mode. An MS2 scan or an SIM scan was used to optimize the fragmenter voltage and a product ion analysis was used to identify the best fragment for analysis, and the collision energy was optimized using a product ion or MRM scan. An ionization ranking was assigned indicating the compound’s ease of ionization.
A control reaction omitting NADPH was performed for each compound in order to detect any NADPH-independent degradation. Aliquots were removed at 0, 10, 20, 40, and 60 min and mixed with an equal volume of ice-cold Stop Solution (methanol containing haloperidol, diclofenac, or other internal standard). The stopped reactions were further incubated for at least 10 min at -20°C, and an additional volume of water was added. The samples were centrifuged to remove precipitated protein, and the supernatants were analyzed by LC/MS/MS to quantify the remaining parent. Data were converted to % remaining by dividing by the time zero concentration value, and fitted to a first-order decay model to determine half-life values. Intrinsic clearance values were calculated from the half-life and protein concentrations by using the equation CLint = ln 2 / t1/2 [microsomal protein].

[9] = 3D7, laboratory A (Marseille), 5% CO2, 10% O2, 85% N2
[10] = 3D7, laboratory B (Paris), candle jar ~17% O2, 3% CO2, 80% N2
[11] = DD2, laboratory A (Marseille), 5% CO2, 10% O2, 85% N2, Dd2 CQ-resistant under these conditions
[12] = DD2, laboratory B (Paris), candle jar ~17% O2, 3% CO2, 80% N2, Dd2 CQ-sensitive under these conditions
[13] = K1, laboratory A (Marseille), 5% CO2, 10% O2, 85% N2
[14] = K1, laboratory B (Paris), candle jar ~17% O2, 3% CO2, 80% N2
[15] = laboratory B (Paris), IC50 ± SD, read-out: Antiplasmodial activity, IC50, K14
[16] = pH 7.4, NADPH-dep. t1/2, human liver microsomes, with NADPH
[17] = pH 7.4, NADPH-free t1/2, human liver microsomes, without NADPH

Row | SMILES | IC50 [1, 9] [nM] | IC50 [1, 10] [nM] | IC50 (P. falciparum Dd2; [11]) [nM] | IC50 (P. falciparum Dd2; [12]) [nM] | IC50 [2, 13] [nM] | IC50 [2, 14] [nM] | IC50 [3] [nM] | IC50 [4, 15] [nM] | IC50 [5] [nM] | CC50 at 3 days [6] [nM] | CC50 at 5 days [7] [nM] | microsomal CLint at 1 μM [8] [µL/min/mg] | half-life at 1 μM [8, 16] [min] | half-life at 1 μM [8, 17] [min] | IC50 ([4]; under conditions A (as printed in text), read-out: IC50 against K14 strain) [nM]
1 | CCN(CC)Cc1cccc(CNc2ccnc3cc(Cl)ccc23)c1 [Compound 2, 7-Chloro-N-(3-((diethylamino)methyl)benzyl)quinolin-4-amine] | 18.4 ± 0.66 | 17.1 ± 2.97 | 26.5 ± 5.07 | 17.1 ± 1.72 | 64.2 ± 6.16 | 12 ± 1.15 | 14.7 ± 0.45 | 23.6 ± 1.73 | 30.3 ± 1.7 | 20600 ± 3920 | 20300 ± 3400 | 56.2 ± 0.55 | 41.1 ± 0.41 | > 240 | 
2 | CCN(CC)Cc1ccc(CNc2ccnc3cc(Cl)ccc23)cc1 [Compound 3, 7-Chloro-N-(4-((diethylamino)methyl)benzyl)quinolin-4-amine] | 17.3 ± 0.58 | 16.1 ± 2.44 | 30.5 ± 2.12 | 17.7 ± 3.78 | 60.3 ± 4.07 | 12.4 ± 0.4 | 24.3 ± 2.9 | 33 ± 5.76 | 31.5 ± 5.7 | 13800 ± 1900 | 13000 ± 2260 | 51.1 ± 3.06 | 45.3 ± 1.36 | > 240 | 
3 | CCN(CC)Cc1ccc(-c2ccc(CNc3ccnc4cc(Cl)ccc34)cc2)cc1 [Compound 4, 7-Chloro-N-((4’-((diethylamino)methyl)-[1,1’-biphenyl]-4-yl)methyl)quinolin-4-amine] | 15.2 ± 1.57 | 12.9 ± 0.85 | 20.7 ± 0.2 | 14.4 ± 0.5 | 53.4 ± 2.03 | 11.8 ± 1 | 16.9 ± 1 |  | 17.9 ± 1.7 | 2800 ± 150 | 2600 ± 120 | 466 ± 44 | ~5 | > 240 | 7.5
4 | CCN(CC)CC1=C(CNc2ccnc3cc(Cl)ccc23)CC=CC1 [Compound 5, 7-Chloro-N-((2-((diethylamino)methyl)cyclohexa-1,4-dien-1-yl)methyl)quinolin-4-amine] |  |  | 59 ± 1.85 |  | 63.7 ± 1.46 | 20.2 ± 6.55 | 25.4 ± 5.31 | 18.7 ± 1.16 |  |  |  |  |  |  | 
